Experimental data published in US8106033B2, “Composition and methods for the treatment of proliferative diseases” (priority 2005, dated 2012).
Entries after “also recorded” stand apart in the source; their conditions may differ. Like-named read-outs stand apart in the source and are kept apart here.

Assays:
[1] = tested on: MCF-7 tumor cells (human breast cancer cell line)
Method: Estradiol pellets (1 mg) were implanted interscapularly into twenty female athymic nude mice (NCR-nu/nu, Taconic) mouse. After 24 hours 1×10^7 MCF-7 tumor cells (breast cancer cell line) were implanted in the mammary fat pad of each mouse. The tumors produced by the tumor cell injections were allowed to grow for a period of 10-15 days until the tumors reached a size from 200 to 250 mm^3. The mice were then divided into four test groups (N=5) which were treated every other day by IP injections with: (a) (E)-2-(5-((2,4,6-trimethoxystyrylsulfonyl)methyl)-2-methoxyphenylamino)acetic acid sodium salt (200 mg/kg) dissolved in PBS; (b) doxorubicin (2.5 mg/kg) dissolved in PBS; (c) a combination of (E)-2-(5-((2,4,6-trimethoxystyrylsulfonyl)methyl)-2-methoxyphenylamino)acetic acid sodium salt (200 mg/kg) and doxorubicin (2.5 mg/kg) dissolved in PBS; or (d) PBS vehicle containing no drug. […] Body weights are plotted in FIG. 3(b) as the mean of the measured weights of all the animals in each dose group. Tumor volume was determined by measuring each tumor in two dimensions using traceable digital Vernier calipers. The tumor volume was calculated for each tumor using the equation: V=L×(S^2)π/6. The tumor volume is plotted in FIG. 3(a) as the mean tumor volume all animals in each particular dose group.

[2] = tested on: BEL-7402 tumor cells (human hepatoma cell line); type: in vivo; settings: BEL-7402 xenograft, IP every other day, Compound A 200 mg/kg, oxaliplatin 5 mg/kg, alone or combined
Method: Twenty female athymic nude mice (NCR-nu/nu, Taconic) were injected subcutaneously with 1×10^7 BEL-7402 tumor cells (human hepatoma cell line). The tumors produced by the tumor cell injections were allowed to grow for a period of 10-14 days until the tumors reached a size from 200 to 250 mm^3. The mice were then divided into four test groups (N=5) which were treated every other day by intraperitoneal (IP) injections of: (a) (E)-2-(5-((2,4,6-trimethoxystyrylsulfonyl)methyl)-2-methoxyphenylamino)acetic acid sodium salt (Compound A) (200 mg/kg) dissolved in PBS; (b) oxaliplatin (5 mg/kg); (c) a combination of (E)-2-(5-((2,4,6-trimethoxystyrylsulfonyl)methyl)-2-methoxyphenylamino)acetic acid sodium salt (200 mg/kg) dissolved in PBS and oxaliplatin (5 mg/kg), or (d) PBS vehicle containing no drug. […] Body weights are plotted in FIG. 1(b) as the mean of the measured weights of all the animals in each dose group. Tumor volume was determined by measuring each tumor in two dimensions using traceable digital Vernier calipers (Fisher Scientific International Inc., Liberty Lane, Hampton, N.H. 03842). The tumor volume was calculated for each tumor using the equation: V=L×(S^2)π/6, wherein L is the longer, and S is the shorter of the two measured dimensions. […]

[3] = tested on: DU145 tumor cells (human prostate cancer cell line); experiment: DU145 tumor xenograft in nude mice (Example 7); type: in vivo; settings: for effect on tumor growth (mean tumor volume): IP every other day, Compound A 200 mg/kg, oxaliplatin 5 mg/kg, alone or combined
Method: At this time, animals were divided into four groups (N=5) and were treated every other day by IP injections with: […] (b) oxaliplatin (5.0 mg/kg); […] All animals were examined for signs of toxicity. Tumor volumes and body weights were determined weekly. […] The tumor volume is plotted in FIG. 2 as the mean tumor volume±standard error of the mean (SEM) for all animals in each particular dose group.

[4] = tested on: MCF-7 tumor cells (human breast cancer cell line); experiment: Doxorubicin toxicity and lethality in MCF-7 tumor-bearing nude mice (Example 9); type: in vivo
Method: Estradiol pellets (1 mg) were implanted interscapularly into ten female athymic nude mice (NCR-nu/nu, Taconic) mouse. […] Body weights for the individual animals of group (a) are plotted in FIG. 4(a) and body weights for the individual animals of group (b) are plotted in FIG. 4(b).

[5] = MCF-7 xenograft, IP every other day, Compound A 200 mg/kg, doxorubicin 2.5 mg/kg, alone or combined

Row | Compound | survival of the animals [1, 5] | effect on tumor growth (mean tumor volume) ([1]; MCF-7 xenograft, IP every other day, Compound A 200 mg/kg, doxorubicin 2.5 mg/kg, alone or combined, sodium salt) | effect on tumor growth (mean tumor volume) ([2]; sodium salt) | effect on tumor growth (mean tumor volume) [3] | time at which tumors were of comparable volume to control tumors after 28 days ([3]; single agents) | effect on tumor growth (mean tumor volume) [1, 5] | tumor size when the animals had died ([1]; doxorubicin 2.5 mg/kg alone, by the 35th day) | animals with major weight loss immediately preceding death ([4]; doxorubicin 1 mg/kg IP every other day alone) | body weight change ([4]; doxorubicin 1 mg/kg IP every other day, alone or with Compound A 200 mg/kg) | survival rate ([4]; doxorubicin 1 mg/kg IP every other day, alone or with Compound A 200 mg/kg, N=5) | effect on tumor growth (mean tumor volume) [2]
1 | COc1cc(OC)c(/C=C/S(=O)(=O)Cc2ccc(OC)c(NCC(=O)[O-])c2)c(OC)c1.[Na+] [(E)-2-(5-((2,4,6-trimethoxystyrylsulfonyl)methyl)-2-methoxyphenylamino)acetic acid sodium salt] | 84 days | significantly slowed the growth of the tumors; also recorded: comparable reduction in tumor growth | significant greater reduction in tumor growth; also recorded: slowed the growth of the tumor | significant therapeutic response | 63 days |  |  |  |  |  | 
2 | COc1cccc2c1C(=O)c1c(O)c3c(c(O)c1C2=O)C[C@@](O)(C(=O)CO)C[C@@H]3O[C@H]1C[C@H](N)[C@H](O)[C@H](C)O1 [doxorubicin] |  |  |  |  |  | significantly slowed the growth of the tumors | 500 mm^3 | 4 of the 5 | initial suggestive weight gain | 20% | 
3 | O=C1[O][Pt]2([NH][C@@H]3CCCC[C@H]3[NH]2)[O]C1=O [oxaliplatin] |  |  |  | significant therapeutic response |  |  |  |  |  |  | significant greater reduction in tumor growth; also recorded: slowed the growth of the tumor
